Columns and labels:
Type in all cases: in vivo
[1] = tested on: velvetleaf (Abutilon theophrasti, ABUTH); assay: Pre-emerge test, greenhouse herbicide activity screening; conditions: rated 14 days after application, 0 = no damage, 100 = complete death
Summary of the method: (§1)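 Compounds in acetone were track-sprayed at 15–1000 g ai/ha: pre-emergence onto soil sown the previous day, then top-watered to incorporate and later bottom-watered; post-emergence onto 2–3 leaf plants with 0.25% v/v surfactant, bottom-watered only. Ratings on a 0–100 phytotoxicity scale were taken at day 14.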

[2] = tested on: green foxtail (Setaria viridis, SETVI); assay: as above; conditions: rated 14 days after application, 0 = no damage, 100 = complete death
Summary of the method: as §1

[3] = tested on: barnyardgrass (Echinochloa crus-galli, ECHCG); assay: as above; conditions: rated 14 days after application, 0 = no damage, 100 = complete death
Summary of the method: as §1

[4] = tested on: large crabgrass (Digitaria sanguinalis, DIGSA); assay: as above; conditions: rated 14 days after application, 0 = no damage, 100 = complete death
Summary of the method: as §1

[5] = tested on: ivyleaf morningglory (Ipomoea hederacea, IPOHE); assay: as above; conditions: rated 14 days after application, 0 = no damage, 100 = complete death
Summary of the method: as §1

[6] = tested on: lambsquarters (Chenopodium album, CHEAL); assay: as above; conditions: rated 14 days after application, 0 = no damage, 100 = complete death
Summary of the method: as §1

[7] = tested on: common ragweed (Ambrosia artemisizfolia L., AMBEL); assay: as above; conditions: rated 14 days after application, 0 = no damage, 100 = complete death
Summary of the method: as §1

[8] = tested on: sicklepod (Cassia obtusifolia, CASOB); assay: as above; conditions: rated 14 days after application, 0 = no damage, 100 = complete death
Summary of the method: as §1

[9] = tested on: johnsongrass (Sorghum halepense, SORHA); assay: as above; conditions: rated 14 days after application, 0 = no damage, 100 = complete death
Summary of the method: as §1

[10] = tested on: redroot pigweed (Amaranthus retroflexus, AMARE); assay: as above; conditions: rated 14 days after application, 0 = no damage, 100 = complete death
Summary of the method: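 Compounds in acetone were track-sprayed at 15-1000 g ai/ha (187 l/ha) on sandy loam pots: pre-emerge one day after seeding, post-emerge at 2-3 leaf stage with 0.25% v/v non-ionic surfactant. Phytotoxicity was rated 14 days later on a 0 (no damage) to 100 (complete death) scale.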

[11] = tested on: upland rice (Oryza sp., var. Tebonnet, RICE); assay: Post-emerge test, crop safety; conditions: post-emerge, 14 days after application, rating scale 0-100
Summary of the method: (§2)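 Rating: 0–100 visual injury, 14 DAA. Application: acetone, 187 l/ha, 15–1000 g ai/ha, flat-fan track sprayer with nozzle 40–45 cm above soil or canopy. Post-emerge runs used 0.25% v/v surfactant on 2–3 leaf plants.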

[12] = tested on: field corn (Zea mays L., var. Dekalb 535, CORN); assay: Post-emerge test, crop safety; conditions: post-emerge, 14 days after application, rating scale 0-100
Summary of the method: as §2

[13] = tested on: velvetleaf (Abutilon theophrasti, ABUTH); assay: Post-emerge test, greenhouse herbicide activity screening; conditions: post-emerge, 14 days after application, rating scale 0-100
Summary of the method: (§3)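 Applied at 15–1000 g ai/ha from acetone in 187 l/ha spray volume. Post-emergence applications included 0.25% v/v non-ionic surfactant and reached plants sown 8–21 days before. Pre-emergence applications were incorporated by surface watering. Efficacy or crop damage was rated on a 0–100 scale after 14 days.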

[14] = tested on: redroot pigweed (Amaranthus retroflexus, AMARE); assay: as above; conditions: post-emerge, 14 days after application, rating scale 0-100
Summary of the method: as §3

[15] = tested on: barnyardgrass (Echinochloa crus-galli, ECHCG); assay: as above; conditions: post-emerge, 14 days after application, rating scale 0-100
Summary of the method: as §3

[16] = tested on: large crabgrass (Digitaria sanguinalis, DIGSA); assay: as above; conditions: post-emerge, 14 days after application, rating scale 0-100
Summary of the method: as §3

[17] = tested on: ivyleaf morningglory (Ipomoea hederacea, IPOHE); assay: as above; conditions: post-emerge, 14 days after application, rating scale 0-100
Summary of the method: as §3

[18] = tested on: lambsquarters (Chenopodium album, CHEAL); assay: as above; conditions: post-emerge, 14 days after application, rating scale 0-100
Summary of the method: as §3

[19] = tested on: common ragweed (Ambrosia artemisizfolia L., AMBEL); assay: as above; conditions: post-emerge, 14 days after application, rating scale 0-100
Summary of the method: as §3

[20] = tested on: sicklepod (Cassia obtusifolia, CASOB); assay: as above; conditions: post-emerge, 14 days after application, rating scale 0-100
Summary of the method: as §3

[21] = tested on: johnsongrass (Sorghum halepense, SORHA); assay: as above; conditions: post-emerge, 14 days after application, rating scale 0-100
Summary of the method: as §3

[22] = tested on: upland rice (Oryza sp., var. Tebonnet, RICE); assay: Pre-emerge test, crop safety; conditions: rated 14 days after application, 0 = no damage, 100 = complete death
Summary of the method: (§4)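 Compounds in acetone were track-sprayed at 187 l/ha, 15–1000 g ai/ha, onto sandy loam pots. Pre-emerge seeds were sown one day before spraying, with surface watering afterwards. Post-emerge plants were at the 2–3 leaf stage and sprayed with 0.25% v/v non-ionic surfactant. Injury was rated 0–100 at 14 days.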

[23] = tested on: field corn (Zea mays L., var. Dekalb 535, CORN); assay: Pre-emerge test, crop safety; conditions: rated 14 days after application, 0 = no damage, 100 = complete death
Summary of the method: as §4

COc1c(Cl)cc(F)c(-n2c(=O)cc(C(F)(F)F)n(C)c2=O)c1NC(=O)c1ccc(OC(F)(F)F)cc1 [2-72]
Pre-emerge Herbicidal Activity, phytotoxicity rating (0-100), ABUTH ([1]; 63 g ai/ha): 100 | Pre-emerge Herbicidal Activity, phytotoxicity rating (0-100), ABUTH ([1]; 250 g ai/ha): 100 | Pre-emerge Herbicidal Activity, phytotoxicity rating (0-100), SETVI ([2]; 63 g ai/ha): 60 | Pre-emerge Herbicidal Activity, phytotoxicity rating (0-100), SETVI ([2]; 250 g ai/ha): 100 | Pre-emerge Herbicidal Activity, phytotoxicity rating (0-100), ECHCG ([3]; 63 g ai/ha): 0 | Pre-emerge Herbicidal Activity, phytotoxicity rating (0-100), ECHCG ([3]; 250 g ai/ha): 50 | Pre-emerge Herbicidal Activity, phytotoxicity rating (0-100), DIGSA ([4]; 63 g ai/ha): 30 | Pre-emerge Herbicidal Activity, phytotoxicity rating (0-100), DIGSA ([4]; 250 g ai/ha): 100 | Pre-emerge Herbicidal Activity, phytotoxicity rating (0-100), IPOHE ([5]; 63 g ai/ha): 20 | Pre-emerge Herbicidal Activity, phytotoxicity rating (0-100), IPOHE ([5]; 250 g ai/ha): 20 | Pre-emerge Herbicidal Activity, phytotoxicity rating (0-100), CHEAL ([6]; 63 g ai/ha): 100 | Pre-emerge Herbicidal Activity, phytotoxicity rating (0-100), CHEAL ([6]; 250 g ai/ha): 100 | Pre-emerge Herbicidal Activity, phytotoxicity rating (0-100), AMBEL ([7]; 63 g ai/ha): 0 | Pre-emerge Herbicidal Activity, phytotoxicity rating (0-100), AMBEL ([7]; 250 g ai/ha): 50 | Pre-emerge Herbicidal Activity, phytotoxicity rating (0-100), CASOB ([8]; 63 g ai/ha): 30 | Pre-emerge Herbicidal Activity, phytotoxicity rating (0-100), CASOB ([8]; 250 g ai/ha): 90 | Pre-emerge Herbicidal Activity, phytotoxicity rating (0-100), SORHA ([9]; 63 g ai/ha): 0 | Pre-emerge Herbicidal Activity, phytotoxicity rating (0-100), SORHA ([9]; 250 g ai/ha): 50 | Pre-emerge Herbicidal Activity, phytotoxicity rating (0-100), AMARE ([10]; 63 g ai/ha): 100 | Pre-emerge Herbicidal Activity, phytotoxicity rating (0-100), AMARE ([10]; 250 g ai/ha): 100 | phytotoxicity rating RICE ([11]; 63 g ai/ha): 0 | phytotoxicity rating RICE ([11]; 250 g ai/ha): 20 | phytotoxicity rating CORN ([12]; 63 g ai/ha): 0 | phytotoxicity rating CORN ([12]; 250 g ai/ha): 10 | phytotoxicity rating ABUTH ([13]; 63 g ai/ha): 100 | phytotoxicity rating ABUTH ([13]; 250 g ai/ha): 100 | phytotoxicity rating AMARE ([14]; 63 g ai/ha): 70 | phytotoxicity rating AMARE ([14]; 250 g ai/ha): 90 | phytotoxicity rating ECHCG ([15]; 63 g ai/ha): 0 | phytotoxicity rating ECHCG ([15]; 250 g ai/ha): 0 | phytotoxicity rating DIGSA ([16]; 63 g ai/ha): 0 | phytotoxicity rating DIGSA ([16]; 250 g ai/ha): 0 | phytotoxicity rating IPOHE ([17]; 63 g ai/ha): 50 | phytotoxicity rating IPOHE ([17]; 250 g ai/ha): 60 | phytotoxicity rating CHEAL ([18]; 63 g ai/ha): 70 | phytotoxicity rating CHEAL ([18]; 250 g ai/ha): 80 | phytotoxicity rating AMBEL ([19]; 63 g ai/ha): 70 | phytotoxicity rating AMBEL ([19]; 250 g ai/ha): 60 | phytotoxicity rating CASOB ([20]; 63 g ai/ha): 70 | phytotoxicity rating CASOB ([20]; 250 g ai/ha): 95 | phytotoxicity rating SORHA ([21]; 63 g ai/ha): 0 | phytotoxicity rating SORHA ([21]; 250 g ai/ha): 0 | Pre-emerge phytotoxicity rating (0-100), crop damage, RICE ([22]; 63 g ai/ha): 10 | Pre-emerge phytotoxicity rating (0-100), crop damage, RICE ([22]; 250 g ai/ha): 40 | Pre-emerge phytotoxicity rating (0-100), crop damage, CORN ([23]; 63 g ai/ha): 0 | Pre-emerge phytotoxicity rating (0-100), crop damage, CORN ([23]; 250 g ai/ha): 5

— US6355799B1, “Substituted benzene compounds, process for their preparation, and herbicidal and defoliant compositions containing them” (ISK Americas Incorporated, priority 1997, dated 2002)
